Measurements from US9193729B2, “Inhibiting transient receptor potential ion channel TRPA1” (Cubist Pharmaceuticals, Inc., priority 2011, dated 2015).

Legend:
hTRPM8 = hTRPM8 (Homo sapiens, UniProt Q7Z2W7); assay: Patch clamp selectivity, hTRPM8; type: cell-based; conditions: hTRPM8 vs TRPA1
Experimental: (§1) Data for TRPA1 inhibition and the selectivity of TRPA1 inhibition was obtained by this method for the compound of Formula (Ia) and included in Table 1 and Table 2. All currents were recorded in whole-cell configuration using EPC-9 and EPC-10 amplifiers and Patchmaster software (HEKA). […] The standard pipette solution consisted of 140 mM CsAsp, 10 mM EGTA, 10 mM HEPES, 2.27 mM MgCl2, 1.91 mM CaCl2, 4 mM MgATP, and 0.1-0.3 mM Na2GTP, with pH adjusted to 7.2 with CsOH. In addition, a solution containing 145 mM CsCl, 10 mM HEPES, 10 mM EGTA and 1 mM MgCl2 (pH 7.2 adjusted with CsOH) can be used. The standard bath solution contained 150 mM NaCl, 10 mM HEPES, 10 mM glucose, 4.5 mM KCl, 1 mM EGTA, 3 mM MgCl2, with pH adjusted to 7.4 with NaOH. In some instances, 2 mM CaCl2 was added in place of EGTA and the concentration of MgCl2 was reduced to 1 mM.
(§2) Data were collected either by continuous recordings at −60 mV or by applying voltage ramps from a holding potential of 0 mV every 4 s. […] Inward and outward currents were analyzed from the ramps at −80 and 80 mV, respectively. […]
(§3) Solutions were switched using a gravity-fed continuous focal perfusion system. […] Temperatures were confirmed using a thermistor (Warner Instruments, TA-29), with temperatures at the recorded cell estimated to be within +/−2° C. of those reported. […]

hTRPV6 = molecular target: T1, hTRPV6 (Homo sapiens, UniProt Q9H1D0); assay: Patch clamp selectivity, hTRPV6; type: cell-based; conditions: hTRPV6 vs TRPA1
T1 sequence (Q9H1D0 1-765): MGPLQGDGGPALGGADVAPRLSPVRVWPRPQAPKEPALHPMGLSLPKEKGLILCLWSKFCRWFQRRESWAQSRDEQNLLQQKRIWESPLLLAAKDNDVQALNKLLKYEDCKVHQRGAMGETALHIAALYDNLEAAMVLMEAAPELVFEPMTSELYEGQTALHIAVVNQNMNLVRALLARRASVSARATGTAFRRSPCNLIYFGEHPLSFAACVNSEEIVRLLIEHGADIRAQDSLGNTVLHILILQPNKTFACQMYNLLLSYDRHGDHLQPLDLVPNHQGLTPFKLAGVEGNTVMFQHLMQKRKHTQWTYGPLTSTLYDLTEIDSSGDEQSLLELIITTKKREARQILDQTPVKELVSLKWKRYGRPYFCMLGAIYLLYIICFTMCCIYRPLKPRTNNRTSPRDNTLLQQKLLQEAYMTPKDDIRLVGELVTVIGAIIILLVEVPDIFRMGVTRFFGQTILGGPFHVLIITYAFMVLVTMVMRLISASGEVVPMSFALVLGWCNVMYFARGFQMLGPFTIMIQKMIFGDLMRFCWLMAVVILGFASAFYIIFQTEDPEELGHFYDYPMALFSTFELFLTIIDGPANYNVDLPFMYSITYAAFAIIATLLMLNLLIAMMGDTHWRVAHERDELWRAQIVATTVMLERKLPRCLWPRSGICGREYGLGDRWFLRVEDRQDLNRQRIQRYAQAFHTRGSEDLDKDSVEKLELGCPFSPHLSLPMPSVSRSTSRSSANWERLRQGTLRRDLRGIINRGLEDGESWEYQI
Experimental: as §1, §2, §3

hTRPV1 = hTRPV1 (Homo sapiens, UniProt Q8NER1); assay: Patch clamp selectivity, hTRPV1; type: cell-based; conditions: hTRPV1 vs TRPA1
Experimental: as §1, §2, §3

dTRPA1 = dTRPA1 (Canis lupus familiaris, UniProt A0A8I3Q1Q7); assay: Whole-cell patch clamp inhibition of dTRPA1; type: cell-based, Dog; conditions: dTRPA1, 10 micromolar AITC activation; read-out: IC50 Inward current
Experimental: as §1, §2, §3

hTRPV4 = hTRPV4 (Homo sapiens, UniProt Q9HBA0); assay: Patch clamp selectivity, hTRPV4 (block); type: cell-based; conditions: hTRPV4 vs TRPA1
Experimental: as §1, §2, §3

hTRPV3 = molecular target: T2, hTRPV3 (Homo sapiens, UniProt Q8NET8); assay: Patch clamp selectivity, hTRPV3; type: cell-based; conditions: hTRPV3 vs TRPA1
T2 sequence (Q8NET8 1-790): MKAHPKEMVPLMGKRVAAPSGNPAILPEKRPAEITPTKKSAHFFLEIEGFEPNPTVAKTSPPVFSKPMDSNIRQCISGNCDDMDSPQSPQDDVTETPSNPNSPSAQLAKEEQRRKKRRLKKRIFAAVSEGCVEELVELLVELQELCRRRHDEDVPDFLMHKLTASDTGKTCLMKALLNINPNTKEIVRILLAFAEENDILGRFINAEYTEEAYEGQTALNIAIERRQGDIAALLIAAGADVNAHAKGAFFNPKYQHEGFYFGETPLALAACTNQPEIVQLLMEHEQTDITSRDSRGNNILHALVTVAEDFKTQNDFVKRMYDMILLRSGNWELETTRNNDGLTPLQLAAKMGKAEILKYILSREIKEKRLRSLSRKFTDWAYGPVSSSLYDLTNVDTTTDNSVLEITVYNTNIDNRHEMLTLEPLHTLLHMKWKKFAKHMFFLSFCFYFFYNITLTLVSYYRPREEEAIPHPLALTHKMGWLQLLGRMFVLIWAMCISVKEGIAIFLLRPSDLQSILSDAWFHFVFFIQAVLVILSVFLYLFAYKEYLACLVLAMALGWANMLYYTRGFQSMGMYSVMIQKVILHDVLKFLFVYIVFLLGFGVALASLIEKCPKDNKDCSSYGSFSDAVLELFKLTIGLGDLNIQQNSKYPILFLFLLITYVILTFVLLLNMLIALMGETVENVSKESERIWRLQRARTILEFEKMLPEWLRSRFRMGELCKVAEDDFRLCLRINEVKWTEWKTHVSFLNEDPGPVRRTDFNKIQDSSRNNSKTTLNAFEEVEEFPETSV
Experimental: as §1, §2, §3

Chain of hTRPV1 (Q8NER1 whole entry): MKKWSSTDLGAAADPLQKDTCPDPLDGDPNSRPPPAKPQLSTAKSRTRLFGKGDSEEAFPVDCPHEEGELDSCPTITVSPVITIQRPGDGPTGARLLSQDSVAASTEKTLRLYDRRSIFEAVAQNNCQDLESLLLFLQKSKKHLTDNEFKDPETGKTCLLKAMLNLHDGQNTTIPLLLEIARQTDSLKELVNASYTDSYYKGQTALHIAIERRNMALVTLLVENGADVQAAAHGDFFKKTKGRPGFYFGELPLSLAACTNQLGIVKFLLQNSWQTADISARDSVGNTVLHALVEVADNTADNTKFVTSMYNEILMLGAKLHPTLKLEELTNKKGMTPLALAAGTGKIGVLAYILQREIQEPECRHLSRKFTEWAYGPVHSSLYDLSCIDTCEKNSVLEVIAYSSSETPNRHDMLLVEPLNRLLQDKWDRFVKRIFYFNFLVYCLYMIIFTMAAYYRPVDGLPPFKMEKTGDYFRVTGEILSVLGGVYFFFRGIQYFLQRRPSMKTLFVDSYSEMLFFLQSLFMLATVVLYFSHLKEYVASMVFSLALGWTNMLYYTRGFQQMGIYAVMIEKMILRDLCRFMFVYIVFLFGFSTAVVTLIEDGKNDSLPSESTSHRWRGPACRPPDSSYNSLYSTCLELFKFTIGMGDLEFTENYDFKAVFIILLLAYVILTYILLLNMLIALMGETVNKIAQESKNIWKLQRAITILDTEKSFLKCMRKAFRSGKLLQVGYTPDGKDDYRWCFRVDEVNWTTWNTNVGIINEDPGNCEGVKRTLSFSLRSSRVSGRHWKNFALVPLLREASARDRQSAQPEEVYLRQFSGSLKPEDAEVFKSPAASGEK
Chain of dTRPA1 (A0A8I3Q1Q7 1-1118): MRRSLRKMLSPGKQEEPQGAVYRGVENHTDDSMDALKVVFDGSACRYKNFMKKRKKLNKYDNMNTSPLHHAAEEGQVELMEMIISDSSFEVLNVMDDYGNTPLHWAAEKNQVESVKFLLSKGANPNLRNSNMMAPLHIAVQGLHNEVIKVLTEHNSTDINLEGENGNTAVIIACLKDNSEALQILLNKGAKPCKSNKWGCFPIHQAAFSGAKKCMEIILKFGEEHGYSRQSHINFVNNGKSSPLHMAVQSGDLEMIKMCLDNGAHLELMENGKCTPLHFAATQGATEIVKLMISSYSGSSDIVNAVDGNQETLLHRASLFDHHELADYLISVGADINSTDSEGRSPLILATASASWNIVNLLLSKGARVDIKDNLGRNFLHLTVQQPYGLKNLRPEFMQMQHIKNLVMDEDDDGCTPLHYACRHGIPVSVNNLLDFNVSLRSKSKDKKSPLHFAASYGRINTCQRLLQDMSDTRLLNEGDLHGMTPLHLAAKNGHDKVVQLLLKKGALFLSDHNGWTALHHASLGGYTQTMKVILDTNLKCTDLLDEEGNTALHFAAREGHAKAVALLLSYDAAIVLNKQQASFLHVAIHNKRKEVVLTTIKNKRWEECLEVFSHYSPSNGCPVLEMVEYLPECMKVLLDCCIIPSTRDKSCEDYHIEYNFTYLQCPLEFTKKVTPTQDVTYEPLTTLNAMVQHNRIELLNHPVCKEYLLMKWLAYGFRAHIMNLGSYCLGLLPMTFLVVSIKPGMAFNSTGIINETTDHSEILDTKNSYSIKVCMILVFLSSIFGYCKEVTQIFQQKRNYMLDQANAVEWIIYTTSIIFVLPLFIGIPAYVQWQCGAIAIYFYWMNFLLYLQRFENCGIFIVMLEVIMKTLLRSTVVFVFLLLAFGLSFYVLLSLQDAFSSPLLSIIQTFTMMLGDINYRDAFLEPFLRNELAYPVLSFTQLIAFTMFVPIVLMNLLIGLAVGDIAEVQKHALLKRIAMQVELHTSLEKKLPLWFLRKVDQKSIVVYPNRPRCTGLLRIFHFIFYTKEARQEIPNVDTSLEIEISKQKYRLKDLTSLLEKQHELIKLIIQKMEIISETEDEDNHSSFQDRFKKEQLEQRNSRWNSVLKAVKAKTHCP
Chain of hTRPV4 (Q9HBA0 whole entry): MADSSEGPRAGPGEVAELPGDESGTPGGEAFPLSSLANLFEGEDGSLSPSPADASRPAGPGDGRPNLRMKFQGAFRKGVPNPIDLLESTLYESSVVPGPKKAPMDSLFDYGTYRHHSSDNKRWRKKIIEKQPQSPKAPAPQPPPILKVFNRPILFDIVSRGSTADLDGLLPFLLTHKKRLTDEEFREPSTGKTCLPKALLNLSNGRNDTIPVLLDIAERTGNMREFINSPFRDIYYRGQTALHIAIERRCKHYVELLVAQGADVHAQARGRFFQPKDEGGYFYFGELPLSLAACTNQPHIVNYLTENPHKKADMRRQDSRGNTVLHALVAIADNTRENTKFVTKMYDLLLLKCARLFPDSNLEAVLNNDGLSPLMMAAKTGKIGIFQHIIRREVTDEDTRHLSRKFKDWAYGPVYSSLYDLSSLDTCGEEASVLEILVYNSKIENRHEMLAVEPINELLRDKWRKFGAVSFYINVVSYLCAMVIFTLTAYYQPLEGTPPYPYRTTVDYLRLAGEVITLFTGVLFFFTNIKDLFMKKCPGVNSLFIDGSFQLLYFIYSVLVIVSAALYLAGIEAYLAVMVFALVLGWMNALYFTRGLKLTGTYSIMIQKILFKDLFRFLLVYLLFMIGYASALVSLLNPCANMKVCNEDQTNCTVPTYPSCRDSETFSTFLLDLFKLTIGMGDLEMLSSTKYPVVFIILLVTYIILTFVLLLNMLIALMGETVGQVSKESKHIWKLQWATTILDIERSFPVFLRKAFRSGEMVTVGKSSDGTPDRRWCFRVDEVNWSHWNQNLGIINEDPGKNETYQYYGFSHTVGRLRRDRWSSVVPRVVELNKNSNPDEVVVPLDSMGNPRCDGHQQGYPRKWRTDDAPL
Chain of hTRPM8 (Q7Z2W7 whole entry): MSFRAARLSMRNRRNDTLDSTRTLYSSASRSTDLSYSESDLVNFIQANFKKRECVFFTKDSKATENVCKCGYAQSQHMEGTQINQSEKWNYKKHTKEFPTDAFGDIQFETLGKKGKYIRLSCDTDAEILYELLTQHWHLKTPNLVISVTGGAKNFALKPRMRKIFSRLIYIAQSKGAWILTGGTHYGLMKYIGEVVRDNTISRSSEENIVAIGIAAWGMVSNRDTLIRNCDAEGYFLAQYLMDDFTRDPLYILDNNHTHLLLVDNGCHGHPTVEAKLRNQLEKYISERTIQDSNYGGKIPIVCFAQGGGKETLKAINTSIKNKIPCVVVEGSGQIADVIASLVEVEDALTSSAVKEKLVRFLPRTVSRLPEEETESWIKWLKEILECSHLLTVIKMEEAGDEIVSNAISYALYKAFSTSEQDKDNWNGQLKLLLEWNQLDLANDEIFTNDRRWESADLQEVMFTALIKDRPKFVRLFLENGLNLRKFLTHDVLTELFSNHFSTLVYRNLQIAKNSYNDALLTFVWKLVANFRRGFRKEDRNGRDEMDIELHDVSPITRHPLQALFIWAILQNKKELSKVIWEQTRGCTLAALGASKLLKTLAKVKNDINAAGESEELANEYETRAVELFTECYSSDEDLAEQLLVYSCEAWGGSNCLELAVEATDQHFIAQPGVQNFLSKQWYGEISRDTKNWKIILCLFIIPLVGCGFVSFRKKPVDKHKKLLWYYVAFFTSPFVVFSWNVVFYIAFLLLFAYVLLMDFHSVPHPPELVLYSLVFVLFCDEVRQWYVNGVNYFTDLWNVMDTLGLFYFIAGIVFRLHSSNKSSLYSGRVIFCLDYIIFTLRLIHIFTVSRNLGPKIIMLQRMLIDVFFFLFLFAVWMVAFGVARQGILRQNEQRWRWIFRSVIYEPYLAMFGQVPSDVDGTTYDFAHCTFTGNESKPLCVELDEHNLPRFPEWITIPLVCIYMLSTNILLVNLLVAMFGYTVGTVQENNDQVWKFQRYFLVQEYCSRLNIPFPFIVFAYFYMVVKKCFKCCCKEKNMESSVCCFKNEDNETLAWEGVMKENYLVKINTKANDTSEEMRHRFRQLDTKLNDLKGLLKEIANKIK

## C[C@H]1CCCN1c1ncc(-c2cccc(NC(=O)Cn3cnc4c3c(=O)n(C)c(=O)n4C)n2)cn1 [Formula (Ia)]
hTRPM8
  Fold Selectivity Compared to TRPA1: ~200 Fold
hTRPV6
  Fold Selectivity Compared to TRPA1: ~370 Fold
hTRPV1
  Fold Selectivity Compared to TRPA1: >100 Fold
dTRPA1
  IC50: ~0.1 µM
hTRPV4
  Fold Selectivity Compared to TRPA1: ~170 Fold
hTRPV3
  Fold Selectivity Compared to TRPA1: >300 Fold
